Measurements taken from the NIST ThermoML archive (doi:10.1021/acs.jced.8b01135).
“And” between values parts separate entries of the source, which are not always exact repeats. Identical values can stand only once. ± gives the expanded uncertainty stated by the source.

How the values were obtained:
[1] = xn = mol fraction of the nth substance listed; conditions: 102 kPa, Liquid, x2 = 0; for speed of sound: Frequency=3 MHz, Single path-length method; for mass density: Vibrating tube method; for viscosity: Concentric cylinders viscometry
[2] = 102 kPa, Liquid; for speed of sound: Frequency=3 MHz, Single path-length method; for mass density: Vibrating tube method; for viscosity: Concentric cylinders viscometry

| Structure (SMILES) | speed of sound ([1]; 288.15 K) [m/s] | mass density ([1]; 288.15 K) [kg/m3] | viscosity ([1]; 293.15 K) [mPa·s] | speed of sound ([1]; 293.15 K) [m/s] | mass density ([1]; 293.15 K) [kg/m3] | speed of sound ([1]; 298.15 K) [m/s] | mass density ([1]; 298.15 K) [kg/m3] | viscosity ([1]; 303.15 K) [mPa·s] | speed of sound ([1]; 303.15 K) [m/s] | mass density ([1]; 303.15 K) [kg/m3] | viscosity ([1]; 313.15 K) [mPa·s] | speed of sound ([1]; 313.15 K) [m/s] | mass density ([1]; 313.15 K) [kg/m3] | viscosity ([1]; 323.15 K) [mPa·s] | speed of sound ([1]; 323.15 K) [m/s] | mass density ([1]; 323.15 K) [kg/m3] | viscosity ([1]; 333.15 K) [mPa·s] | speed of sound ([1]; 333.15 K) [m/s] | mass density ([1]; 333.15 K) [kg/m3] | speed of sound ([2]; 288.15 K) [m/s] | other results |
| --- | --- | --- | --- | --- | --- | --- | --- | --- | --- | --- | --- | --- | --- | --- | --- | --- | --- | --- | --- | --- | --- |
| CCCCCCCCCCCC [dodecane] + CCCCCCC1CCCCC1 | 1317.2 ± 0.8 | 752.35 ± 0.71 | 1.49 ± 0.02 | 1297.7 ± 0.8 | 748.72 ± 0.71 | 1278.2 ± 0.8 | 745.09 ± 0.71 | 1.27 ± 0.02 | 1259 ± 0.8 | 741.46 ± 0.71 | 1.08 ± 0.02 | 1221.1 ± 0.8 | 734.19 ± 0.71 | 0.934 ± 0.021 | 1184 ± 0.8 | 726.88 ± 0.71 | 0.813 ± 0.021 | 1147.8 ± 0.8 | 719.53 ± 0.71 |  |  |
| CCCCCCCC1CCCCC1 [heptylcyclohexane] |  |  |  |  |  |  |  |  |  |  |  |  |  |  |  |  |  |  |  | 1393.6 ± 0.9 | mass density ([2]; 288.15 K): 814.51 ± 0.71 kg/m3; viscosity ([2]; 293.15 K): 2.8 ± 0.03 mPa·s; speed of sound ([2]; 293.15 K): 1374.2 ± 0.9 m/s; mass density ([2]; 293.15 K): 811 ± 0.71 kg/m3; speed of sound ([2]; 298.15 K): 1355.1 ± 0.9 m/s; mass density ([2]; 298.15 K): 807.49 ± 0.71 kg/m3; viscosity ([2]; 303.15 K): 2.25 ± 0.03 mPa·s; speed of sound ([2]; 303.15 K): 1336.1 ± 0.9 m/s; mass density ([2]; 303.15 K): 803.99 ± 0.71 kg/m3 and 803.98 ± 0.71 kg/m3; viscosity ([2]; 313.15 K): 1.85 ± 0.03 mPa·s; speed of sound ([2]; 313.15 K): 1298.8 ± 0.9 m/s; mass density ([2]; 313.15 K): 796.95 ± 0.71 kg/m3; viscosity ([2]; 323.15 K): 1.55 ± 0.03 mPa·s; speed of sound ([2]; 323.15 K): 1262.2 ± 0.9 m/s; mass density ([2]; 323.15 K): 789.91 ± 0.71 kg/m3; viscosity ([2]; 333.15 K): 1.31 ± 0.03 mPa·s; speed of sound ([2]; 333.15 K): 1226.7 ± 0.9 m/s; mass density ([2]; 333.15 K): 782.85 ± 0.71 kg/m3 |
| CCCCCCCCCCCC [dodecane] + CCCCCCCCCCCCC1CCCCC1 | 1317.2 ± 0.8 | 752.35 ± 0.71 | 1.49 ± 0.02 | 1297.7 ± 0.8 | 748.72 ± 0.71 | 1278.2 ± 0.8 | 745.09 ± 0.71 | 1.27 ± 0.02 | 1259 ± 0.8 | 741.46 ± 0.71 | 1.08 ± 0.02 | 1221.1 ± 0.8 | 734.19 ± 0.71 | 0.934 ± 0.021 | 1184 ± 0.8 | 726.88 ± 0.71 | 0.813 ± 0.021 | 1147.8 ± 0.8 | 719.53 ± 0.71 |  |  |
| CCCCCCCCC1CCCCC1 [octylcyclohexane] |  |  |  |  |  |  |  |  |  |  |  |  |  |  |  |  |  |  |  | 1405.5 ± 1 | mass density ([2]; 288.15 K): 817.58 ± 0.72 kg/m3; viscosity ([2]; 293.15 K): 3.52 ± 0.04 mPa·s; speed of sound ([2]; 293.15 K): 1386.4 ± 1 m/s; mass density ([2]; 293.15 K): 814.13 ± 0.72 kg/m3; speed of sound ([2]; 298.15 K): 1367.4 ± 1 m/s; mass density ([2]; 298.15 K): 810.67 ± 0.72 kg/m3; viscosity ([2]; 303.15 K): 2.79 ± 0.03 mPa·s; speed of sound ([2]; 303.15 K): 1348.6 ± 1 m/s; mass density ([2]; 303.15 K): 807.21 ± 0.72 kg/m3 and 807.2 ± 0.72 kg/m3; viscosity ([2]; 313.15 K): 2.26 ± 0.03 mPa·s; speed of sound ([2]; 313.15 K): 1311.6 ± 1 m/s; mass density ([2]; 313.15 K): 800.28 ± 0.72 kg/m3; viscosity ([2]; 323.15 K): 1.87 ± 0.03 mPa·s; speed of sound ([2]; 323.15 K): 1275.5 ± 1 m/s; mass density ([2]; 323.15 K): 793.35 ± 0.72 kg/m3; viscosity ([2]; 333.15 K): 1.57 ± 0.03 mPa·s; speed of sound ([2]; 333.15 K): 1240.3 ± 1 m/s; mass density ([2]; 333.15 K): 786.41 ± 0.72 kg/m3 |
